Experiment: gradient 5% acetonitrile 3 min, to 50% in 2 min, to 85% in 15 min, held 3 min, 100 µL/min
Settings: column: Zorbax Extend-C18 2.1 x 50 mm; eluents: water / acetonitrile, 0.1% formic acid
Method in brief: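 Retention times come from adduct peaks that were picked computationally and then checked by hand. The standards, pure and pooled in mixtures of ~100 molecules, were run on a Zorbax Extend-C18 column (2.1 × 50 mm, 1.8 μm) at 100 μL/min with water and acetonitrile, each with 0.1% formic acid. Detection was by quadrupole time-of-flight mass spectrometry in positive and negative ionization mode, with a dead volume of 40 μL and a dwell volume of 900 μL.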

SMILES	RP-LC retention time [s]
O=c1c2nc(-c3ccccc3)cn2ccn1-c1ccc(F)c(Cl)c1	853
CC(=O)Nc1cc(C(=O)NCc2ccccc2Br)c2ccc(C)nc2c1	623
O=C1CCCCC(C(=O)N2CCc3ccccc32)N1 (centres undefined)	726
CCc1ccc(C(=O)NC2CCN(c3ccccc3)C2=O)cc1 (centres undefined)	811
Cn1cccc1Cc1nnc(SCC(=O)NCc2ccco2)n1Cc1ccccc1	708
CCc1ccc(C(=O)Nc2cc3c(cc2S(=O)(=O)C(C)C)n(C)c(=O)n3C)cc1	747
CCOc1ccc(OCC)c(NS(=O)(=O)c2cc(-c3c(CC)noc3NC(C)=O)ccc2C)c1	932
Cc1ccc(-c2cc(OCC(N)=O)c3cc(NC(=O)COc4ccccc4)ccc3n2)cc1	700
O=C(COc1ccccc1Cl)N1CCCCC1CCN1CCCC1 (centres undefined)	656
CCn1c(=O)sc2cc(S(=O)(=O)N3CCC(C(=O)NCc4cccnc4)CC3)ccc21	610
Cc1ccn2c(Nc3ccc4c(c3)OCCO4)c(-c3ccccc3)nc2c1	690
O=C(c1c[nH]c2ccccc12)N1CCCC1c1nc(-c2ccccc2)n[nH]1 (centres undefined)	649
CN1CCN(CCNC(=O)C2CCCN(c3nc4ccccc4n(Cc4ccccc4)c3=O)C2)CC1 (centres undefined)	662
CNC(=O)c1ccc(C)c(-n2c(C)cc(OCc3ccc(F)cc3F)c(Br)c2=O)c1	818
Cc1ccc(-c2nc3c(C)cccn3c2Nc2ccc3c(c2)OCCO3)cc1	721
CC(=O)NCc1nc(-c2cccc(-c3csc(C)n3)c2)no1	704
O=C(Cn1nc2n(c1=O)CCCCC2)NCc1ccc(F)cc1	671
CCCNC(=O)C(=O)NCc1n[nH]c(=O)c2ccccc12	627
O=C(c1ccco1)N1[C@H]2CC[C@@H]1c1cnc(-c3ccc(F)cc3)nc1C2	858
Cc1ccc(Cl)cc1NC(=O)C1CCCN1S(=O)(=O)c1cc2c(cc1C)NC(=O)C(C)O2 (centres undefined)	892
CCCS(=O)(=O)N1CC(=O)N(c2cccc(Cl)c2)C(C)(C(=O)NC2CCCCC2)C1 (centres undefined)	955
CCn1cc(-c2nc(CC(=O)Nc3ccccc3Cl)cs2)c2cccnc21	1050

SMILES	RP-LC retention time [s]
O=C(NC1CCCCC1)c1ccc2ccnc(N3CCN(c4ccccc4)CC3)c2c1	851
Cc1ccc(-c2ccc3nnc(CCC(=O)NCc4ccccc4C(F)(F)F)n3n2)cc1	794
CCCC(=O)OCCCNc1nc(-c2ccc(Cl)cc2)nc2ccccc12	813
COc1cccc(OCC(O)CN2CCN(Cc3ccccc3)CC2)c1 (centres undefined)	610
CCC(C)NC(=O)c1cc(-c2cccs2)nc2onc(C)c12 (centres undefined)	929
COc1cc(Cl)c(NS(=O)(=O)c2c(C)sc(C)c2-c2cc(C(F)(F)F)on2)c(OC)c1	1190
COCCCNC(=O)N1CCCC1c1nc(-c2cccc(Cl)c2)no1 (centres undefined)	853
O=C(c1cc(-c2ccco2)on1)N1CCC(Oc2nc3ccccc3s2)CC1	1030
CCOc1cccc2c(C)nc(NC3=NCN(CCOC)CN3)nc12	643
CCc1ccccc1NC(=O)C1CCN(c2nnc3ccccn23)CC1	660
O=C(NCC1CCN(S(=O)(=O)C2CC2)CC1)c1ccccn1	652
CCOc1ccc(-c2nc(COc3cc(C)c4c(C)nn(C)c4n3)c(C)o2)cc1OC	1110
O=C(Cc1cccc2ccccc12)Nc1c(-c2ccccc2)nc2ccccn12	708
CCOC(=O)c1c(S(=O)(=O)N2CCC(C(=O)Nc3cccc(C)n3)CC2)c(C)n(C)c1C	701
COC(=O)c1ccc(-c2csc(NC(=O)C3CCCC3)n2)cc1	942
O=C(Cn1c(=O)c2cc(-c3ccco3)nn2c2ncccc21)NC1CCCCC1	793
COc1ccc(CN(Cc2ccccc2)Cc2cc(=O)n3cc(C)ccc3n2)cc1	696
CCOC(=O)c1ccc(Nc2c(C(=O)N3CCCCC3CC)cnc3nc(C)ccc23)cc1 (centres undefined)	701
CSc1cccc(NC(=O)C2CCN(C(=O)C3Sc4ccccc4NC3=O)CC2)c1 (centres undefined)	814
CCOc1cc(=O)c(C(N)=O)nn1-c1ccc(C)cc1	613
CCC1CN(C(=O)N2CCC(C(=O)NCCN3CCOCC3)CC2)c2ccccc2O1 (centres undefined)	630
CC(C)c1nc2cccnc2n1CCN1CCN(C(=O)Nc2ccc(Br)cc2F)CC1	632

From the METLIN SMRT retention time set (Domingo-Almenara et al. 2019)
